Experiments:
[1] = biological target: T1, VtrA–VtrC periplasmic domain complex (heterodimer) (Vibrio parahaemolyticus, UniProt Q87GI3+Q87GI4); test: isothermal titration calorimetry; format: binding
T1 construct: gene VPA1333; periplasmic domains: VtrC residues 31-161 with N-terminal His6 tag, coexpressed with VtrA residues 161-253 (pACYC-Duet-VtrC/VtrA, E. coli BL21(DE3)); heterodimer, bile acid lies in the beta-barrel, contacts printed are VtrC residues

[2] = biological target: T2, VtrA–VtrC periplasmic domain complex (heterodimer) (Vibrio parahaemolyticus, UniProt Q87GI3+Q87GI4, Q87GI3:Y81A); test: biochemical
T2 construct: gene VPA1333
Excerpt: (§1) isothermal titration calorimetry on VtrA–VtrC periplasmic domain complex (heterodimer)

[3] = biological target: T3, VtrA–VtrC periplasmic domain complex (heterodimer) (Vibrio parahaemolyticus, UniProt Q87GI3+Q87GI4, Q87GI3:Y151F); test: biochemical
T3 construct: gene VPA1333
Excerpt: as §1

[4] = biological target: T4, VtrA–VtrC periplasmic domain complex (heterodimer) (Vibrio parahaemolyticus, UniProt Q87GI3+Q87GI4, Q87GI3:Y151A); test: biochemical
T4 construct: gene VPA1333
Excerpt: as §1

[5] = biological target: T5, VtrA–VtrC periplasmic domain complex (heterodimer) (Vibrio parahaemolyticus, UniProt Q87GI3+Q87GI4, Q87GI3:H50A); test: biochemical
T5 construct: gene VPA1333
Excerpt: as §1

[6] = biological target: T6, VtrA–VtrC periplasmic domain complex (heterodimer) (Vibrio parahaemolyticus, UniProt Q87GI3+Q87GI4, Q87GI3:S123A); test: biochemical
T6 construct: gene VPA1333
Excerpt: as §1

[7] = biological target: T1, VtrA–VtrC periplasmic domain complex (heterodimer); test: isothermal titration calorimetry; crystal structure of the complex also solved ([…] Å); format: binding

Row | Compound | Kd [1] | Kd [2] | Kd [3] | Kd [4] | Kd [5] | Kd [6] | Kd [7]
1 | C[C@H](CCC(=O)NCC(=O)O)[C@H]1CC[C@H]2[C@@H]3[C@H](O)C[C@@H]4C[C@H](O)CC[C@]4(C)[C@H]3CC[C@]12C [GCDC, glycochenodeoxycholate] | 0.211 µM |  |  |  |  |  | 
2 | C[C@H](CCC(=O)O)[C@H]1CC[C@H]2[C@@H]3[C@H](O)C[C@@H]4C[C@H](O)CC[C@]4(C)[C@H]3C[C@H](O)[C@]12C [CA, cholate] | 0.377 µM |  |  |  |  |  | 
3 | C[C@H](CCC(=O)NCCS(=O)(=O)O)[C@H]1CC[C@H]2[C@@H]3CC[C@@H]4C[C@H](O)CC[C@]4(C)[C@H]3C[C@H](O)[C@]12C [TDC, taurodeoxycholate] | 0.129 µM | 1.19 µM | 0.873 µM | 2.5 µM | 0.301 µM | 0.0912 µM | 
4 | C[C@H](CCC(=O)O)[C@H]1CC[C@H]2[C@@H]3CC[C@@H]4C[C@H](O)CC[C@]4(C)[C@H]3C[C@H](O)[C@]12C [DC, deoxycholate] | 0.232 µM |  |  |  |  |  | 
5 | C[C@H](CCC(=O)O)[C@H]1CC[C@H]2[C@@H]3[C@H](O)C[C@@H]4C[C@H](O)CC[C@]4(C)[C@H]3CC[C@]12C [CDC, chenodeoxycholate] |  | 0.731 µM | 1.17 µM | 2.28 µM | 0.904 µM | 0.202 µM | 0.31 µM

Source: article PMC10140157, “Molecular determinants for differential activation of the bile acid receptor from the pathogen Vibrio parahaemolyticus” (The Journal of Biological Chemistry, 2023)
